# Results taken from BindingDB's records for patent US11447504 (Bayer Aktiengesellschaft; Bayer Pharma Aktiengesellschaft; …, 2022).
# Where “and” joins values, the source holds several entries; their conditions need not be identical. Equal values may be shown once.
# Molecular target: T1, Induced myeloid leukemia cell differentiation protein Mcl-1 [K194A,K197A,R201A] (Homo sapiens, UniProt Q07820, K194A/K197A/R201A)
# T1 construct: gene MCL1
# Experiment: MCL-1/Noxa BH3 Peptide (MCL-1 Assay)
# Experimental: The dose-dependent inhibition by the compounds described in this invention of the interaction between MCL-1 and the BH3 domain of Noxa (both human) was determined using a steady state binding competition assay with time-resolved fluorescence energy transfer (TR-FRET) readout. […] The MBP-MCL-1 was purchased from Beryllium (Bedford, Mass., USA). […] The Noxa BH3-derived peptide can be obtained from e.g. Biosyntan (Berlin, Germany).
# T1 sequence (Q07820 whole entry K194A/K197A/R201A, looked up): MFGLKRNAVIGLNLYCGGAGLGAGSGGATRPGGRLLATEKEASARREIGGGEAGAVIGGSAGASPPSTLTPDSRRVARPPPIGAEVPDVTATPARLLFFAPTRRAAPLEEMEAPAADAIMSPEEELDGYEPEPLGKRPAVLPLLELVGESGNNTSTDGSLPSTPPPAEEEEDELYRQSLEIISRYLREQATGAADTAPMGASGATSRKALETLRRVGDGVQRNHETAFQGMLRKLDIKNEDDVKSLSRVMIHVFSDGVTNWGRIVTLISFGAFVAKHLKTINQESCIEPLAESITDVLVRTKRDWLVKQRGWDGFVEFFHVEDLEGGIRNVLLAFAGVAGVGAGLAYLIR
row,SMILES,IC50
1,"Cc1c2c(nn1C)N(C)CCCCCn1c(C(=O)O)c(CCCOc3cccc4ccccc34)c3ccc(Cl)c-2c31 [US11447504, Example 71]",2.2 nM
2,"CCc1c2c(nn1C)N(C)CCCCCn1c(C(=O)O)c(CCCOc3cccc4cc(F)ccc34)c3ccc(Cl)c-2c31 [US11447504, Example 77]",2.1 nM and 6.4 nM
